Measured values taken from patent US8541587B2, “Lysophosphatidic acid receptor antagonists” (Amira Pharmaceuticals, Inc., priority 2011, dated 2013).

How the values were obtained:
human LPA1 receptor = target: T1, human LPA1 receptor (Homo sapiens, UniProt Q92633); assay: LPA1 binding (GTPγS binding assay, membranes of CHO cells expressing human LPA1); format: biochemical; settings: 900 nM LPA, [35S]-GTPγS
T1 construct: the full-length cDNA for human LPA1 was obtained by PCR of the reverse transcription reaction; expressed in transfected cells
T1 sequence (Q92633 whole entry): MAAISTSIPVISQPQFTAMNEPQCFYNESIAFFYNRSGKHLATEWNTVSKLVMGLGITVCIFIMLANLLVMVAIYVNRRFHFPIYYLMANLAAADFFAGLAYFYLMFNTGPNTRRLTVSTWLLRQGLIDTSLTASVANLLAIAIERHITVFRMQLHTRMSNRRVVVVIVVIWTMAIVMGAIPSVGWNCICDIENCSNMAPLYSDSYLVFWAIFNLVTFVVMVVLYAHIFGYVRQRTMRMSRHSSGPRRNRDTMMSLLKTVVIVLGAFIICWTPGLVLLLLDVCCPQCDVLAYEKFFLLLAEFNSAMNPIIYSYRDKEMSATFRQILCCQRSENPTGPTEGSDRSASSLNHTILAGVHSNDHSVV
Protocol: A 1.1 kb cDNA encoding the human LPA1 receptor was cloned from human lung. Human lung RNA (Clontech Laboratories, Inc. USA) was reverse transcribed using the RETROscript kit (Ambion, Inc.) and the full-length cDNA for human LPA1 was obtained by PCR of the reverse transcription reaction. The nucleotide sequence of the cloned human LPA1 was determined by sequencing and confirmed to be identical to the published human LPA1 sequence (An et al. Biochem. Biophys. Res. Commun. 231:619 (1997). The cDNA was cloned into the pCDNA5/FRT expression plasmid and transfected in CHO cells using lipofectamine 2000 (Invitrogen Corp., USA). Clones stably expressing human LPA1 were selected using hygromycin and identified as cells that show Ca-influx in response to LPA.
The ability of a compound to inhibit binding of GTP to LPA1 is assessed via a membrane GTPγS assay. CHO cells stably expressing the recombinant human LPA1 receptor are resuspended in 10 mM Hepes, 7.4 containing 1 mM DTT, lysed and centrifuged at 75,000×g to pellet the membranes. The membranes are resuspended in 10 mM Hepes, 7.4 containing 1 mM DTT and 10% glycerol. Membranes (˜25 μg per well) are incubated in 96-well plates with 0.1 nM [^35S]-GTPγS, 900 nM LPA, 5 μM GDP, and test compound in Assay Buffer (50 mM Hepes, pH 7.4, 100 mM NaCl, 10 mM MgCl2, 50 μg/ml saponin and 0.2% fatty-acid free human serum albumin) for 30 minutes at 30° C. The reactions are terminated by rapid filtration through Whatman GF/B glass fibre filter plates. The filter plates are washed 3 times with 1 ml cold Wash Buffer (50 mM Hepes, 7.5, 100 mM NaCl and 10 mM MgCl2) and dried. Scintillant is then added to the plates and the radioactivity retained on the filters is determined on a Packard TopCount (Perkin Elmer). Specific binding is determined as total radioactive binding minus non-specific binding in the absence of the ligand (900 nM LPA). IC50s were determined using Graphpad prism analysis of drug titration curves.

[1] = tested on: A2058 human melanoma cells; assay: LPA1 chemotaxis assay; format: cell-based; settings: 100 nM LPA, read-out: IC50, inhibition of LPA-driven chemotaxis
Protocol: Chemotaxis of the A2058 human melanoma cells was measured using the Neuroprobe ChemoTx® System plates (8 μm pore size, 5.7 mm diameter sites). The filter sites were coated with 0.001% fibronectin (Sigma) in 20 mM Hepes, pH 7.4 and allowed to dry. A2058 cells were serum-starved for 24 hours, then harvested with Cell Stripper and resuspended in DMEM containing 0.1% fatty-acid-free bovine serum albumin (BSA) to a concentration of 1×10^6/ml. Cells were mixed with an equal volume of test compound (2×) in DMEM containing 0.1% fatty-acid-free BSA and incubated at 37° C. for 15 minutes. LPA (100 nM in DMEM containing 0.1% fatty-acid-free BSA) or vehicle was added to each well of the lower chamber and 50 μl of the cell suspension/test compound mix was applied to the upper portion of the ChemoTx plate. Plates were incubated at 37° C. for three hours and then the cells removed from the upper portion by rinsing with PBS and scraping. The filter was dried then stained with HEMA 3 Staining System (Fisher Scientific). The absorbance of the filter was read at 590 nm and IC50s were determined using Symyx Assay Explorer.

human LPA3 receptor = target: T2, human LPA3 receptor (Homo sapiens, UniProt Q9UBY5); assay: LPA3 calcium flux assay (CHO cells stably expressing human LPA3); format: cell-based; settings: read-out: LPA3 Binding IC50
T2 construct: The full-length cDNA fragment for human LPA3 was obtained by PCR from the vector; expressed in transfected cells
T2 sequence (Q9UBY5 1-353): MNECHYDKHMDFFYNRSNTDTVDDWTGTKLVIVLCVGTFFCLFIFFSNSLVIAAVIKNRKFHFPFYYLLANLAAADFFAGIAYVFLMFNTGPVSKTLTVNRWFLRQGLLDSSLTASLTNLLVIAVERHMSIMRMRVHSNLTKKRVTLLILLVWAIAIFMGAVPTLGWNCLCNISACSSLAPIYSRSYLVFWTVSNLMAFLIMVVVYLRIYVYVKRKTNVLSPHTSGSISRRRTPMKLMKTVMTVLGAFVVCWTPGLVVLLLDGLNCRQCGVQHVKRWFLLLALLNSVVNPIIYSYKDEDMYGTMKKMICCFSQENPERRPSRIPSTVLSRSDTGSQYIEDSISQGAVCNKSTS
Protocol: A vector containing the human LPA3 receptor cDNA was obtained from the Missouri S&T cDNA Resource Center (www.cdna.org). The full-length cDNA fragment for human LPA3 was obtained by PCR from the vector. The nucleotide sequence of the cloned human LPA3 was determined by sequencing and confirmed to be identical to the published human LPA3 sequence (NCBI accession number NM_012152). The cDNA was cloned into the pCDNA5/FRT expression plasmid and transfected in CHO cells using lipofectamine 2000 (Invitrogen Corp., USA). Clones stably expressing human LPA3 were selected using hygromycin and identified as cells that show Ca-influx in response to LPA.
(§1) Human LPA1 or LPA3 expressing CHO cells are seeded at 20,000-45,000 cells per well in a 96-well poly-D-lysine coated plate one or two days before the assay. Prior to the assay, the cells are washed once with PBS and then cultured in serum-free media overnight. On the day of the assay, a calcium indicator dye (Calcium 4, Molecular Devices) in assay buffer (HBSS with Ca^2+ and Mg^2+ and containing 20 mM Hepes and 0.3% fatty-acid free human serum albumin) is added to each well and incubation continued for 1 hour at 37° C. 10 μl of test compounds in 2.5% DMSO are added to the cells and incubation continued at room temperature for 30 minutes. Cells are the stimulated by the addition of 10 nM LPA and intracellular Ca^2+ measured using the Flexstation 3 (Molecular Devices). IC50s are determined using Graphpad prism analysis of drug titration curves.

human LPA2 receptor = target: T3, human LPA2 receptor (Homo sapiens, UniProt Q9HBW0); assay: LPA2 calcium flux assay (B103 cells transiently expressing human LPA2); format: cell-based; settings: read-out: LPA2 Binding IC50
T3 construct: The full-length cDNA fragment for human LPA2 was obtained by PCR from the vector; expressed in transfected cells; host or cells: B103 cells (pCDNA3.1, transient, lipofectamine 2000)
T3 sequence (Q9HBW0 whole entry, the tested form may be a part): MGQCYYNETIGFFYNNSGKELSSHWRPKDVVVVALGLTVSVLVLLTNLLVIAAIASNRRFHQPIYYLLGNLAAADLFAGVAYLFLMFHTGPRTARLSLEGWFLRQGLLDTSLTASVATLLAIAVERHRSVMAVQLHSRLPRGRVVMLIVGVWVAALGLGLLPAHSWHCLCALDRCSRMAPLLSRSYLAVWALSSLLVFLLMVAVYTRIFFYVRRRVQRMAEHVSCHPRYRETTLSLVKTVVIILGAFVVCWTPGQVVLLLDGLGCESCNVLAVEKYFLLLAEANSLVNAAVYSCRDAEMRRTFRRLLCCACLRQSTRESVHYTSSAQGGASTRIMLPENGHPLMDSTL
Protocol: A vector containing the human LPA2 receptor cDNA was obtained from the Missouri S&T cDNA Resource Center (www.cdna.org). The full-length cDNA fragment for human LPA2 was obtained by PCR from the vector. The nucleotide sequence of the cloned human LPA2 was determined by sequencing and confirmed to be identical to the published human LPA2 sequence (NCBI accession number NM_004720). The cDNA was cloned into the pCDNA3.1 expression plasmid and transfected into B103 cells (Invitrogen Corp., USA) by seeding cells in a 96-well poly-D-lysine coated plate at 30,000-35,000 cells per well together with 0.2 μl lipofectamine 2000 and 0.2 μg of the LPA2 expression vector. Cells were cultured overnight in complete media before being assayed for LPA-induced Ca-influx.
as §1, with “Following an overnight culture with lipofectamine 2000 and” for “Human LPA1 or LPA3 expressing CHO cells are seeded at 20,000-45,000 cells per well in a 96-well poly-D-lysine coated plate one or two days before”, “LPA2 expression vector,” for “assay. Prior to”, “B103” for “assay, the”, “PBS” for “PBS and”, “serum starved for 4 hours. A” for “cultured in serum-free media overnight. On the day of the assay, a”

| SMILES | IC50 (human LPA1 receptor) | IC50 [1] | IC50 (human LPA3 receptor) | IC50 (human LPA2 receptor) |
| --- | --- | --- | --- | --- |
| Cc1cccc(-c2cccc(Nc3c(C)noc3-c3ccc(-c4ccc(C5(C(=O)O)CC5)cc4)cc3)n2)c1 [Compound 2, 1-(4′-{3-Methyl-4-[6-(3-methyl-phenyl)-pyridin-2-ylamino]-isoxazol-5-yl}-biphenyl-4-yl)-cyclopropanecarboxylic acid] | < 300 nM | < 500 nM | < 300 nM | < 300 nM |
| Cc1cccc(-c2cncc(Nc3c(C)noc3-c3ccc(-c4ccc(C5(C(=O)O)CC5)cc4)cc3)c2)c1 [Compound 5, 1-(4′-{3-Methyl-4-[5-(3-methyl-phenyl)-pyridin-3-ylamino]-isoxazol-5-yl}-biphenyl-4-yl)-cyclopropanecarboxylic acid] | < 300 nM | < 500 nM | < 300 nM | < 300 nM |
| Cc1ccc(-c2cccc(Nc3c(C)noc3-c3ccc(-c4ccc(C5(C(=O)O)CC5)cc4)cc3)n2)cc1 [Compound 3, 1-(4′-{3-Methyl-4-[6-(4-methyl-phenyl)-pyridin-2-ylamino]-isoxazol-5-yl}-biphenyl-4-yl)-cyclopropanecarboxylic acid] | < 300 nM | < 500 nM | < 300 nM | < 300 nM |
| Cc1ccccc1-c1cccc(Nc2c(C)noc2-c2ccc(-c3ccc(C4(C(=O)O)CC4)cc3)cc2)n1 [Compound 1, 1-(4′-{3-Methyl-4-[6-(2-methyl-phenyl)-pyridin-2-ylamino]-isoxazol-5-yl}-biphenyl-4-yl)-cyclopropanecarboxylic acid] | < 300 nM | < 500 nM | < 300 nM | < 300 nM |
| Cc1ccc(-c2cncc(Nc3c(C)noc3-c3ccc(-c4ccc(C5(C(=O)O)CC5)cc4)cc3)c2)cc1 [Compound 6, 1-(4′-{3-Methyl-4-[5-(4-methyl-phenyl)-pyridin-3-ylamino]-isoxazol-5-yl}-biphenyl-4-yl)-cyclopropanecarboxylic acid] | < 300 nM | < 500 nM | < 300 nM | < 300 nM |
| Cc1cccc(-c2cccc(Nc3c(C)noc3-c3ccc(-c4ccc(C5(C(=O)NS(C)(=O)=O)CC5)cc4)cc3)n2)c1 [Compound 8, N-(1-{4′-[3-Methyl-4-(6-(3-methyl-phenyl)-pyridin-2-ylamino)-isoxazol-5-yl]-biphenyl-4-yl}-cyclopropanecarbonyl)-methanesulfonamide] | < 300 nM |  | < 300 nM | < 300 nM |
| Cc1cccc(-c2cncc(Nc3c(C)noc3-c3ccc(-c4ccc(C5(C(=O)NS(C)(=O)=O)CC5)cc4)cc3)c2)c1 [Compound 11, N-(1-{4′-[3-Methyl-4-(5-(3-methyl-phenyl)-pyridin-3-ylamino)-isoxazol-5-yl]-biphenyl-4-yl}-cyclopropanecarbonyl)-methanesulfonamide] | < 300 nM |  | < 300 nM | < 300 nM |
| Cc1ccccc1-c1cncc(Nc2c(C)noc2-c2ccc(-c3ccc(C4(C(=O)O)CC4)cc3)cc2)c1 [Compound 4, 1-(4′-{3-Methyl-4-[5-(2-methyl-phenyl)-pyridin-3-ylamino]-isoxazol-5-yl}-biphenyl-4-yl)-cyclopropanecarboxylic acid] | < 300 nM | < 500 nM | < 300 nM | < 300 nM |
